In ChEMBL document CHEMBL4316588, “Design, Synthesis, and Biological Evaluation of Novel DNA Gyrase-Inhibiting Spiropyrimidinetriones as Potent Antibiotics for Treatment of Infections Caused by Multidrug-Resistant Gram-Positive Bacteria” (J Med Chem, 2019):
Values after ≈ are worked out from the molar mass of the structure shown. Active and inactive are the calls of the source. The calls are words filed in the database; no cut-off is given here.

How the values were obtained:
[1] = molecular target: Voltage-gated inwardly rectifying potassium channel KCNH2 (Homo sapiens, UniProt Q12809); experiment: Inhibition of human ERG expressed in CHO cells in at -80 mV holding potential by automated Qpatch clamp assay; assay type: cell-based
Voltage-gated inwardly rectifying potassium channel KCNH2, sequence (Q12809 whole entry): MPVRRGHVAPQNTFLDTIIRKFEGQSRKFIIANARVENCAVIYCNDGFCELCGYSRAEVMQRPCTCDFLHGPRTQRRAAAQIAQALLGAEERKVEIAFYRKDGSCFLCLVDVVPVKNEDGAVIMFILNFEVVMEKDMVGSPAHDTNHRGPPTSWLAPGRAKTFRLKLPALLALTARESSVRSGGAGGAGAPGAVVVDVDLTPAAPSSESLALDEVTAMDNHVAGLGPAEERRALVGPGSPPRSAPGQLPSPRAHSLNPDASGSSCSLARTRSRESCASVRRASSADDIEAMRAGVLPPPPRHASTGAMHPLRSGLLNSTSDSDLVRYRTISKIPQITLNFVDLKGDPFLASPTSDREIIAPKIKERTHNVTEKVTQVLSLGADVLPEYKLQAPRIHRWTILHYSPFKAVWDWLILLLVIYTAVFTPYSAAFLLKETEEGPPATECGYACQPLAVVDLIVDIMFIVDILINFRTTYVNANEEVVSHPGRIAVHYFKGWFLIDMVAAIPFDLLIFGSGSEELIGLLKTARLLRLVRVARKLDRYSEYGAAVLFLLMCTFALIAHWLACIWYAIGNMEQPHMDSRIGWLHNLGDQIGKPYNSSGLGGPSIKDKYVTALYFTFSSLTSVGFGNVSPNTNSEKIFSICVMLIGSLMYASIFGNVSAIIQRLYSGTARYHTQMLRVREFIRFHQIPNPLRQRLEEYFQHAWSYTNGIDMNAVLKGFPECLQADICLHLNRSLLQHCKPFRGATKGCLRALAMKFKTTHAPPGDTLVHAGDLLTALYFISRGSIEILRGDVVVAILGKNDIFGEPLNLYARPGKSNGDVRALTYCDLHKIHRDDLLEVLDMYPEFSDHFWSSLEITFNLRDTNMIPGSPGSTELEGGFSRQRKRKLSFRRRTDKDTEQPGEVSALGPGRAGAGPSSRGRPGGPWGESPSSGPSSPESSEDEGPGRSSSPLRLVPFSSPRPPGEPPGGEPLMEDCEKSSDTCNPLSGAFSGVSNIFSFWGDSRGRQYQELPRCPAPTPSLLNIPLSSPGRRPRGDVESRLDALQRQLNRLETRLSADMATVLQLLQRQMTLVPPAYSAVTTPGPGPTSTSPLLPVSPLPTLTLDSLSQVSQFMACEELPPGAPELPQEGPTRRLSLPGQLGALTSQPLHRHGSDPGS

[2] = tested on: Staphylococcus epidermidis; experiment: Antibacterial activity against methicillin-sensitive Staphylococcus epidermidis after 18 to 20 hrs by CLSI-protocol based broth microdilution method; assay type: functional
[3] = Cmax in CD1 mouse at 10 mg/kg, po by LC-MS/MS analysis; assay type: ADME, organism-based; parameters: dose 10 mg/kg, route oral; details: in vivo
[4] = Solubility of the compound in water incubated at 37 degC for 24 hrs by LC/MS/MS analysis; assay type: physicochemical
Streptococcus pneumoniae = experiment: Antibacterial activity against penicillin-resistant Streptococcus pneumoniae after 18 to 20 hrs by CLSI-protocol based broth microdilution method; assay type: functional
Staphylococcus aureus [5] = experiment: Antibacterial activity against methicillin-sensitive Staphylococcus aureus infected in Kunming mouse dosed subcutaneously at 0.5 and 4.0 hrs postinfection and measured at 7 to 14 days post treatment by Bliss method; assay type: functional; details: sc
[6] = tested on: Staphylococcus epidermidis; experiment: Antibacterial activity against methicillin-resistant Staphylococcus epidermidis after 18 to 20 hrs by CLSI-protocol based broth microdilution method; assay type: functional
[7] = molecular target: DNA topoisomerase 2-alpha (Homo sapiens, UniProt P11388); experiment: Inhibition of human topoisomerase-2alpha using catenated DNA as substrate after 30 mins by ethidium bromide-based gel electrophoresis
DNA topoisomerase 2-alpha, sequence (P11388 whole entry): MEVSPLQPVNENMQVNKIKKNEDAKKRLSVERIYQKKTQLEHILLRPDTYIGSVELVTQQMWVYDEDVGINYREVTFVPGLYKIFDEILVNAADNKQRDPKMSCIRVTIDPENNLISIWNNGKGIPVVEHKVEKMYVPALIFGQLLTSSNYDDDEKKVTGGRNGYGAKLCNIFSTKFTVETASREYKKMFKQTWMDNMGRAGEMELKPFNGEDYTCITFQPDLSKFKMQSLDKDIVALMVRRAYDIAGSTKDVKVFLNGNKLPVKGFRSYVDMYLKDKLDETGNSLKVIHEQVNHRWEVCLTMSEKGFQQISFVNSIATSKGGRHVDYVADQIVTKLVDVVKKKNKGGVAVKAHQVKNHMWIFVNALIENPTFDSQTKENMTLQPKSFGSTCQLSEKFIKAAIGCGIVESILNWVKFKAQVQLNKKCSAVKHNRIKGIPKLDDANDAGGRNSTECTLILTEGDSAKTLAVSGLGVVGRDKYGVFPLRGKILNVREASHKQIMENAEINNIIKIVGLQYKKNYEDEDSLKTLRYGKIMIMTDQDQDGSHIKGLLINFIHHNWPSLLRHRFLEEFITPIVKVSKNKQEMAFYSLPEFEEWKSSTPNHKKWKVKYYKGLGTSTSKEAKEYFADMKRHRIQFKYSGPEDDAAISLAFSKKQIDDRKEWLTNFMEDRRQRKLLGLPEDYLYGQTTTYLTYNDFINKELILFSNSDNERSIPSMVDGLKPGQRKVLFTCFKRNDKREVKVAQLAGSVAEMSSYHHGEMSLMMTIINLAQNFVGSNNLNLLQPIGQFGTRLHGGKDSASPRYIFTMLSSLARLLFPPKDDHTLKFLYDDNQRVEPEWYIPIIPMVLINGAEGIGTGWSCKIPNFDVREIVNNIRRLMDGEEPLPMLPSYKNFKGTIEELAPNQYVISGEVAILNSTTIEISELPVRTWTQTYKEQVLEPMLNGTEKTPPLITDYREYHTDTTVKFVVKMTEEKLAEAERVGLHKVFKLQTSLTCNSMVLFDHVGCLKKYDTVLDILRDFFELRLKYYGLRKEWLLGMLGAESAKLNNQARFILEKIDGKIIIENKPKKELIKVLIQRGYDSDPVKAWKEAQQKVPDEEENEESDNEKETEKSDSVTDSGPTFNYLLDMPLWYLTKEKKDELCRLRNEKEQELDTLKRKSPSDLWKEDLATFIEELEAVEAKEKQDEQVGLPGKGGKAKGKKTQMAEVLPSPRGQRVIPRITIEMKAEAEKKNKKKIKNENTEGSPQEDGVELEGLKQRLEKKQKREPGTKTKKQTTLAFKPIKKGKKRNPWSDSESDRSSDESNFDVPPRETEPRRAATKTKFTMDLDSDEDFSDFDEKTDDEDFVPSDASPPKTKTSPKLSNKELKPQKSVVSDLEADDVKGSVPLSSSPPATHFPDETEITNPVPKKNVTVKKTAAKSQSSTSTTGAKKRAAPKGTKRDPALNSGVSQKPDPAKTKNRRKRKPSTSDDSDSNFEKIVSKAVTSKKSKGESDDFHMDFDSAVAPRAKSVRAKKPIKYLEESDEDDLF

DNA gyrase = DNA gyrase (Staphylococcus aureus, UniProt P0A0K8+P20831)
DNA gyrase, sequence (P0A0K8 whole entry): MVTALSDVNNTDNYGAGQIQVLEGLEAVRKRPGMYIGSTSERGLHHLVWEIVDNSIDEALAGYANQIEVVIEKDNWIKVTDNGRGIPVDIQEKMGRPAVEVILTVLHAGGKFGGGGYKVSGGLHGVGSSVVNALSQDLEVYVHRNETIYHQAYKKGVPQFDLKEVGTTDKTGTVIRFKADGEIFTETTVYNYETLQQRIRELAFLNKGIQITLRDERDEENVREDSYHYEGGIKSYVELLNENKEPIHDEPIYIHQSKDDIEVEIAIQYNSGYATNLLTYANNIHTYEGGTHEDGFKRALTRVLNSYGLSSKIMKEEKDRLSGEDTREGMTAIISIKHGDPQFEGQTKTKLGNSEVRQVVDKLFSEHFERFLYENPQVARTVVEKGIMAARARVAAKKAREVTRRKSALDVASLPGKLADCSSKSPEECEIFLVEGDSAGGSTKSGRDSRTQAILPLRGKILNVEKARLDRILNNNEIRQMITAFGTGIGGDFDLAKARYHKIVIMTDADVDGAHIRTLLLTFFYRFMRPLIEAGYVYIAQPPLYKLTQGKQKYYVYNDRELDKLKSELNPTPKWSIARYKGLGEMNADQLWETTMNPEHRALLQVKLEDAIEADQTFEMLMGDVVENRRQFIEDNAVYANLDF
DNA gyrase, sequence (P20831 whole entry): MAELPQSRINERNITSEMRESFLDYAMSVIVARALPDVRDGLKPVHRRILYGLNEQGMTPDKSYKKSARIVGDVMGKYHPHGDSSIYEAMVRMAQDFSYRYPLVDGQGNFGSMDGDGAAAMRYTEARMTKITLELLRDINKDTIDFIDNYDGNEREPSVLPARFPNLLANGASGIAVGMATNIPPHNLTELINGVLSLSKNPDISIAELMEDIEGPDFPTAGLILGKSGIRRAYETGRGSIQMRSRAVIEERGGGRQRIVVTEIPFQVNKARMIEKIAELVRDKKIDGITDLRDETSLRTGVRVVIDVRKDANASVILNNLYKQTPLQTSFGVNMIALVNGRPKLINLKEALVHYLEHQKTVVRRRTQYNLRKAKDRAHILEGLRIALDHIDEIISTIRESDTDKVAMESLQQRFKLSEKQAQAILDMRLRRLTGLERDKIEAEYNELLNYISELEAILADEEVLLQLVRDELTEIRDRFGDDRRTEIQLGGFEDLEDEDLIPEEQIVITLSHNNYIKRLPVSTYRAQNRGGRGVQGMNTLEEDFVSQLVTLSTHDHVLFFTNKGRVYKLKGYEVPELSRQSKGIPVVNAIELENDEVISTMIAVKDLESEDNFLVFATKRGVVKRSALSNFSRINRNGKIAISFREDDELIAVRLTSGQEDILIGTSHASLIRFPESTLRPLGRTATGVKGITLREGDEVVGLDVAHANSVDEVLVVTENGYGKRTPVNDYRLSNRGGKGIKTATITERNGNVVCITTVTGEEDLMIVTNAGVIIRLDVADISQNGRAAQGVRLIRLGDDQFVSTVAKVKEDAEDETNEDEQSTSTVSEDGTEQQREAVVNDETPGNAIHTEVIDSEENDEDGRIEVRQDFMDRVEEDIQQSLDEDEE
Description: Inhibition of Staphylococcus aureus DNA gyrase supercoiling activity using relaxed pHOT-1 DNA as substrate after 60 mins by ethidium bromide-based gel electrophoresis

[8] = AUCt in Sprague-Dawley rat at 100 mg/kg, po by LC-MS/MS analysis; assay type: ADME, organism-based; details: in vivo
Neisseria gonorrhoeae = experiment: Antibacterial activity against Neisseria gonorrhoeae after 18 to 20 hrs by CLSI-protocol based agar microdilution method; assay type: functional
[9] = Tmax in CD1 mouse at 10 mg/kg, po by LC-MS/MS analysis; assay type: ADME, organism-based; details: in vivo
[10] = Solubility of the compound in pH 1.2 gastric juice incubated at 37 degC for 24 hrs by LC/MS/MS analysis; assay type: physicochemical
[11] = Oral bioavailability in Sprague-Dawley rat at 100 mg/kg by LC-MS/MS analysis; assay type: ADME, organism-based; details: in vivo
[12] = Elimination half life in CD1 mouse at 10 mg/kg, po by LC-MS/MS analysis; assay type: ADME, organism-based; details: in vivo, read-out: beta t1/2 (converted)
[13] = AUCt in CD1 mouse at 10 mg/kg, po by LC-MS/MS analysis; assay type: ADME, organism-based; details: in vivo
[14] = MRT in CD1 mouse at 10 mg/kg, po by LC-MS/MS analysis; assay type: ADME, organism-based; details: in vivo
[15] = Solubility of the compound in pH 6.8 intestinal juice incubated at 37 degC for 24 hrs by LC/MS/MS analysis; assay type: physicochemical
Streptococcus pyogenes = experiment: Antibacterial activity against Streptococcus pyogenes after 18 to 20 hrs by CLSI-protocol based broth microdilution method; assay type: functional
[16] = Elimination half life in Sprague-Dawley rat at 100 mg/kg, po by LC-MS/MS analysis; assay type: ADME, organism-based; details: in vivo, read-out: beta t1/2 (converted)
Staphylococcus aureus [17] = experiment: Antibacterial activity against methicillin-resistant Staphylococcus aureus after 18 to 20 hrs by CLSI-protocol based broth microdilution method; assay type: functional
Staphylococcus aureus [18] = experiment: Antibacterial activity against methicillin-sensitive Staphylococcus aureus after 18 to 20 hrs by CLSI-protocol based broth microdilution method; assay type: functional
[19] = Streptococcus pyogenes, read-out: MIC
[20] = Staphylococcus aureus, read-out: MIC

Structure (SMILES) | IC50 [1] [µM] | MIC [2] | MIC (Streptococcus pneumoniae) | MIC [6] | IC50 [7] [µM] | IC50 (DNA gyrase) [µM] | MIC50 (Neisseria gonorrhoeae) [µg/mL] | MIC90 (Neisseria gonorrhoeae) [µg/mL] | Tmax [9] [h] | MIC (Streptococcus pyogenes; [19]) [µg/mL] | MIC (Staphylococcus aureus [17]) | MIC (Staphylococcus aureus [18]; [20]) [µg/mL] | other results
C[C@@H]1CN2c3c(cc4c(N5C[C@H](C)SC5=O)noc4c3F)CC3(C(=O)NC(=O)NC3=O)[C@H]2[C@H](C)O1 | > 40 | < 0.03 µg/mL | < 0.03 µg/mL | < 0.03 µg/mL | > 200 | 12.6 | 0.06 (≈ 0.119 µM) | 0.125 (≈ 0.248 µM) | 1.33 | < 0.03 | – | – | Cmax [3]: 2080 ng/mL; solubility at 24 h [4]: 10.2 µM (≈ 5.14 µg/mL); ED50 (Staphylococcus aureus [5]): 9.59 mg/kg; AUC(0-t) [8]: 452 µg·h/mL; solubility at 24 h [10]: 9.4 µM (≈ 4.73 µg/mL); bioavailability [11]: 52.7%; half-life [12]: 7.68 h; AUC(0-t) [13]: 22.5 µg·h/mL; MRT [14]: 11.4 h; solubility at 24 h [15]: 11.3 µM (≈ 5.69 µg/mL); half-life [16]: 8.63 h
C[C@@H]1CN2c3c(cc4c(N5C(=O)SC[C@@H]5C)noc4c3F)CC3(C(=O)NC(=O)NC3=O)[C@H]2[C@H](C)O1 | – | 0.03 to 0.125 µg/mL (≈ 0.0596 to 0.248 µM) | 0.125 to 1 µg/mL (≈ 0.248 to 1.99 µM) | 0.06 to 0.25 µg/mL (≈ 0.119 to 0.497 µM) | > 200 | 15.6 | – | – | – | 0.125 to 0.25 (≈ 0.248 to 0.497 µM) | 0.03 to 0.125 µg/mL (≈ 0.0596 to 0.248 µM) | 0.25 to 0.5 (≈ 0.497 to 0.993 µM) | –
C[C@@H]1CN2c3c(cc4c(N5C[C@@H](C)SC5=O)noc4c3F)CC3(C(=O)NC(=O)NC3=O)[C@H]2[C@H](C)O1 | > 40 | – | ≤ 0.03 µg/mL | 0.03 to 0.06 µg/mL (≈ 0.0596 to 0.119 µM) | > 200 | 15.3 | 0.03 (≈ 0.0596 µM) | 0.125 (≈ 0.248 µM) | 0.58 | < 0.03 | 0.03 to 0.25 µg/mL (≈ 0.0596 to 0.497 µM) | – | –
C[C@@H]1CN2c3c(cc4c(N5CCOCC5=O)ncnc4c3F)CC3(C(=O)NC(=O)NC3=O)[C@H]2[C@H](C)O1 (racemic) | – | inactive | inactive | inactive | – | – | – | – | – | – | inactive | – | MIC (Staphylococcus aureus [18]): inactive; MIC (Streptococcus pyogenes): inactive
CC[C@@H]1CSC(=O)N1c1noc2c(F)c3c(cc12)CC1(C(=O)NC(=O)NC1=O)[C@H]1[C@H](C)O[C@H](C)CN31 | – | 1 µg/mL (≈ 1.93 µM) | 2 µg/mL (≈ 3.86 µM) | 0.25 to 2 µg/mL (≈ 0.483 to 3.86 µM) | – | – | – | – | – | 4 (≈ 7.73 µM) | 0.5 to 2 µg/mL (≈ 0.966 to 3.86 µM) | 0.5 to 1 (≈ 0.966 to 1.93 µM) | –
COC[C@H]1CN(c2noc3c(F)c4c(cc23)CC2(C(=O)NC(=O)NC2=O)[C@H]2[C@H](C)O[C@H](C)CN42)C(=O)S1 | > 40 | 0.03 to 0.125 µg/mL (≈ 0.0562 to 0.234 µM) | – | < 0.03 µg/mL | > 200 | 9.4 | 0.25 (≈ 0.469 µM) | 0.5 (≈ 0.937 µM) | 0.58 | 0.25 to 0.5 (≈ 0.469 to 0.937 µM) | 0.03 to 0.5 µg/mL (≈ 0.0562 to 0.937 µM) | 0.03 to 0.25 (≈ 0.0562 to 0.469 µM) | –
